# From publication PMC12754617, “Ruthenium-enhanced curcumin derivatives target tumor growth and cancer-related inflammation in head and neck cancer models” (Frontiers in Oncology, 2025)
# Like-named read-outs stand apart in the source and are kept apart here.
# Tests used:
# [1] = test system: Detroit 562; experiment: Wound healing assay; assay type: cell-based, human; details: IC25 concentration, area closed
# Protocol: (§1) The wound healing activity of complexes 3 and 4 was evaluated using the ibidi Culture-Insert 2 Well in a μ-dish. Cells were plated by applying 70 μL of cell suspension at a density of 50,000 cells into both wells of the Culture-Insert 2 Well and grown over the weekend. Once confluency was achieved, sterile tweezers were used to detach the Culture-Insert 2 Well from the μ-dish. The cell layer was then gently washed with PBS. Subsequently, the cell layer was treated with medium containing complex 3 or 4 at the IC25 concentration, and wound closure was observed and photographed using an inverted light microscope (0–55 h of incubation). Experiments were performed in four independent replicates.
# (§2) An in vitro wound healing assay was performed to determine the effect of complex 3 or 4 on cell migration. The area of the wound bordered by a monolayer of cells was measured using ImageJ software. Wound closure was monitored from 0 to 55 h. […] Microscope images after 24 h for all cell lines, as well as 55 h, can be seen in Supplementary Figure S7. […] The stained wound healing area after 55 h is shown in Supplementary Figure S10.
# [2] = test system: FaDu; experiment: Wound healing assay; assay type: cell-based, human; details: IC25 concentration, area closed
# Protocol: as §1, §2
# [3] = test system: Hep-2; experiment: Wound healing assay; assay type: cell-based, human; details: IC25 concentration, area closed
# Protocol: as §1, §2
# [4] = test system: KB; experiment: Wound healing assay; assay type: cell-based, human; details: IC25 concentration, area closed
# Protocol: as §1, §2
# [5] = test system: HGF; experiment: Wound healing assay; assay type: cell-based, human; details: IC25 concentration, area closed
# Protocol: as §1, §2
# [6] = test system: CAL 27; experiment: Wound healing assay; assay type: cell-based, human; details: IC25 concentration, area closed
# Protocol: as §1, §2
# [7] = test system: TR146; experiment: Wound healing assay; assay type: cell-based, human; details: IC25 concentration, area closed
# Protocol: as §1, §2
# [8] = test system: SCC-9; experiment: Wound healing assay; assay type: cell-based, human; details: IC25 concentration, area closed
# Protocol: as §1, §2
# [9] = molecular target: T1, IL-6R (Homo sapiens, UniProt P08887); experiment: ELISA assay IL-6R; assay type: binding; details: 15 μM, 500 pg/mL IL-6R
# T1 construct: purchased PeproTech, Thermo Fisher Scientific
# Protocol: Human ELISA kits for IL-6, IL-6R, and IL-8 (Sigma-Aldrich, Merck, Germany) were used to quantify cytokine levels after treatment with complex 3 or 4. Briefly, 96-well plates precoated with specific antibodies were used to capture IL-6, IL-6R, and IL-8 from samples. […] Each sample was supplemented with 500 pg/mL of IL-6/IL-6R/IL-8. Positive control wells contained only the IL-6/IL-6R/IL-8 standard (PeproTech, Thermo Fisher Scientific, Waltham, Massachusetts, USA). […] After incubation, wells were washed, and biotinylated antihuman antibodies were added, followed by washing and addition of HRP-conjugated streptavidin. Finally, the TMB substrate was added to develop a color proportional to the cytokine concentration, and the reaction was stopped with the stop solution. Absorbance was measured at 450 nm using an […] 200 PRO microplate reader (TECAN, Switzerland).
# [10] = test system: Detroit 562; experiment: MTT viability assay; assay type: cell-based, human
# Protocol: (§3) A colorimetric 3-(4,5-dimethylthiazolyl)-2,5-diphenyltetrazolium bromide (MTT) cell metabolic activity assay was used to assess the cytotoxicity of complexes 3 and 4. The cells (described above) were cultured under standard conditions. Cells were seeded in 96-well plates at a density of 10,000 cells per well (200 μL) and allowed to grow for 24 h. The medium was then replaced with medium containing complex 3 or 4 at a concentration ranging from 0 to 200 μM, and the cells were incubated for an additional 24, 48, and 72 h. Subsequently, the medium was replaced with MTT solution, consisting of yellow tetrazolium dye 3-(4,5-dimethylthiazol-2-yl)-2,5-diphenyltetrazolium bromide (Sigma-Aldrich, Merck, Germany), and incubated for 2 h at 37°C. The dye was then removed, and the resulting purple formazan formed in viable cells was dissolved in DMSO, followed by shaking for 30 s. Absorbance was measured at 570 nm using an […] 200 PRO microplate reader (TECAN, Männedorf, Switzerland). All experiments were performed in quadruplicate and repeated three times.
# (§4) The cell inhibitory concentration (IC) was calculated using the equation IC = (Acomplex3/complex4 well/mean Acontrol wells) × 100%. The half-maximal inhibitory concentration (IC50) was determined from dose–response curves using GraphPad Prism 10 (GraphPad Software Inc., La Jolla, CA, USA). The selectivity index toward cancer cells was calculated as a ratio of the average IC50 value for HGF to the IC50 value for the corresponding cancer cell line.
# [11] = test system: Hep-2; experiment: MTT viability assay; assay type: cell-based, human
# Protocol: as §3, §4
# [12] = test system: KB; experiment: MTT viability assay; assay type: cell-based, human
# Protocol: as §3, §4
# [13] = test system: HGF; experiment: MTT viability assay; assay type: cell-based, human
# Protocol: as §3, §4
# [14] = test system: CAL 27; experiment: MTT viability assay; assay type: cell-based, human
# Protocol: as §3, §4
# [15] = test system: TR146; experiment: MTT viability assay; assay type: cell-based, human
# Protocol: as §3, §4
# [16] = test system: SCC-9; experiment: MTT viability assay; assay type: cell-based, human
# Protocol: as §3, §4
# T1 sequence (P08887 20-468): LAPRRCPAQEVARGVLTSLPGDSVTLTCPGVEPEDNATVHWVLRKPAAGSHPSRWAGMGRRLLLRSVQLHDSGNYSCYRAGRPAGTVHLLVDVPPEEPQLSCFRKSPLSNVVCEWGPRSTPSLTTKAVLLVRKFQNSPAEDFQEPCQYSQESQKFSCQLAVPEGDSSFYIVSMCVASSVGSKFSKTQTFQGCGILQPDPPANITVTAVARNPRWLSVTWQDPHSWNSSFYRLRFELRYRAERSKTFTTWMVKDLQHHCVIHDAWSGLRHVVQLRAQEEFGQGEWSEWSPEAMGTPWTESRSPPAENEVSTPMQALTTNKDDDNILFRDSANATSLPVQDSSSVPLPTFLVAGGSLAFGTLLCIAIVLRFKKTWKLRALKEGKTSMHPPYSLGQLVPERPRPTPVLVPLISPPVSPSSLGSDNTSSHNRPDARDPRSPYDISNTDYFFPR
smiles,measurement,setting,value
Cc1ccc(C(C)C)cc1.Cc1ccc(C(C)C)cc1.O=C1C(=Cc2cccnc2)CCC1=Cc1cccnc1.[Cl][Ru][Cl].[Cl][Ru][Cl] [Complex 4],Wound area (%),"[1]; Detroit 562, 24 h",13 ± 7%
same,Wound area (%),"[1]; Detroit 562, 48 h",38 ± 11%
same,Wound area (%),"[1]; Detroit 562, 55 h",76 ± 2%
same,Wound area (%),[2]; 24 h,24 ± 6%
same,Wound area (%),[2]; 48 h,43 ± 10%
same,Wound area (%),[2]; 55 h,61 ± 6%
same,Wound area (%),"[3]; Hep-2, 24 h",9 ± 2%
same,Wound area (%),"[3]; Hep-2, 48 h",23 ± 3%
same,Wound area (%),"[3]; Hep-2, 55 h",less than 50%
same,Wound area (%),"[3]; Hep-2, 55 h, listed as C4",47 ± 2%
same,Wound area (%),[4]; 24 h,16 ± 4%
same,Wound area (%),[4]; 48 h,33 ± 4%
same,Wound area (%),[4]; 55 h,less than 50%
same,Wound area (%),"[4]; 55 h, listed as C4",44 ± 2%
same,Wound area (%),[5]; 24 h,13 ± 3%
same,Wound area (%),[5]; 48 h,47 ± 11%
same,Wound area (%),[5]; 55 h,91 ± 1%
same,Wound area (%),"[6]; CAL 27, 24 h",7 ± 4%
same,Wound area (%),"[6]; CAL 27, 48 h",11 ± 3%
same,Wound area (%),"[6]; CAL 27, 55 h",less than 15%
same,Wound area (%),"[6]; CAL 27, 55 h, listed as C4",12 ± 3%
same,Wound area (%),"[7]; TR146, 24 h",3 ± 1%
same,Wound area (%),"[7]; TR146, 48 h",5 ± 1%
same,Wound area (%),"[7]; TR146, 55 h",less than 15%
same,Wound area (%),"[7]; TR146, 55 h, listed as C4",7 ± 1%
same,Wound area (%),"[8]; SCC-9, 24 h",17 ± 12%
same,Wound area (%),"[8]; SCC-9, 48 h",37 ± 8%
same,Wound area (%),"[8]; SCC-9, 55 h",55 ± 13%
same,Decrease in IL-6R concentration,[9],about 15%
same,IC50,"[10]; Detroit 562, 24 h, read-out: IC50 24h",21.7 ± 2.45 µM
same,IC50,"[10]; Detroit 562, 48 h, read-out: IC50 48h",42.2 ± 0.62 µM
same,IC50,"[10]; Detroit 562, 72 h, read-out: IC50 72h",18.1 ± 2.63 µM
same,IC50,"[11]; Hep-2, 24 h, read-out: IC50 24h",88 ± 4.03 µM
same,IC50,"[11]; Hep-2, 48 h, read-out: IC50 48h",21.2 ± 0.02 µM
same,IC50,"[11]; Hep-2, 72 h, read-out: IC50 72h",37.65 ± 0.36 µM
same,IC50,"[12]; 24 h, read-out: IC50 24h",20.8 ± 0.77 µM
same,IC50,"[12]; 48 h, read-out: IC50 48h",25.2 ± 0.33 µM
same,IC50,"[12]; 72 h, read-out: IC50 72h",30.3 ± 0.65 µM
same,IC50,"[13]; 24 h, read-out: IC50 24h",28.2 ± 2.78 µM
same,IC50,"[13]; 48 h, read-out: IC50 48h",9 ± 1.68 µM
same,IC50,"[13]; 72 h, read-out: IC50 72h",13.9 ± 0.59 µM
same,IC50,"[14]; CAL 27, 24 h, read-out: IC50 24h",27.1 ± 0.79 µM
same,IC50,"[14]; CAL 27, 48 h, read-out: IC50 48h",16.1 ± 0.57 µM
same,IC50,"[14]; CAL 27, 72 h, read-out: IC50 72h",33.3 ± 0.65 µM
same,IC50,"[15]; TR146, 24 h, read-out: IC50 24h",59.3 ± 3.24 µM
same,IC50,"[15]; TR146, 48 h, read-out: IC50 48h",16.8 ± 0.81 µM
same,IC50,"[15]; TR146, 72 h, read-out: IC50 72h",18.2 ± 1.07 µM
same,IC50,"[16]; SCC-9, 24 h, read-out: IC50 24h",14.3 µM
same,IC50,"[16]; SCC-9, 48 h, read-out: IC50 48h",16.6 ± 0.71 µM
same,IC50,"[16]; SCC-9, 72 h, read-out: IC50 72h",3.65 ± 0.4 µM
